Measured values taken from PubChem BioAssay AID179 (DTP/NCI, 2004).
pEC50, pIC50: −log10 of the molar value. Activity calls are given as the source filed them.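 The calls were made as follows: active = compounds giving half or more protection of infected cells from virus-caused growth loss, again on retest; inactive = the rest.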

Test system: CEM cells HIV-1 protection, formazan growth assay
Assay: NCI AIDS Antiviral Assay
Settings: for pIC50: measured here: growth of uninfected CEM cells
Summary of the method: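 Human CEM cells, uninfected and HIV-1-infected, received five drug concentrations, and growth was read by soluble formazan assay. Compounds giving at least 50% protection were retested; reproducible 100% protection defined confirmed active.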

SMILES | pEC50 | pIC50 | outcome
Oc1cc(-c2ccc(Cl)cc2)cn2c1nc1ccccc12 | < 3.70 | 5.01 | 
CCOC(=O)c1cc2c(OCc3ccccc3)c(OC)cc3c2c(n1)N(c1ccc(OC)cc1)C(C)C3 (centres undefined) | < 4.98 | < 4.98 | 
O=C1NC2OC(C(O)CO)C(O)C2O1 (centres undefined) | < 3.70 | < 3.70 | 
OC1[C@@H]2[C@@H](O)CCCN2C[C@@H](O)[C@H]1O (some centres undefined) | < 3.70 | < 3.70 | 
COc1c2c(cc3nc4ccccc4nc13)CCC(C(C)(C)O)C2 (centres undefined) |  |  | inactive
O/N=C1/CC2(N3CCOCC3)C3CC/C(=N\O)C2CC1(Cc1ccccc1)C3 (centres undefined) | < 3.70 | 3.91 | 
COC(=O)CCC(=O)c1ccc2c(c1)CC1(Cc3ccccc3C1)C2 | < 3.70 | 4.33 | 
C=CCC[CH2][Sn]([c]1ccccc1)([c]1ccccc1)[c]1ccccc1 |  |  | inactive
COC(=O)/C(=C\c1cn(C(C)=O)c2ccccc12)P(=O)(OC)OC | < 3.70 | 4.48 | 
CC1=N[C@@](C)(C2CC3C=CC2C3=O)COC1=O (some centres undefined) | < 3.54 | < 3.54 | 
CCOC(=O)C(C)(C)Oc1ccc2c(-c3ccc(Cl)cc3)cc(=O)oc2c1 | < 4.87 | < 4.87 | 
CO/C(=N\N=C(/c1ccccc1)C(F)(F)F)c1ccncc1 | < 3.70 | 4.56 | 
CSc1cc(SC)ncn1 | < 2.84 | 2.99 | 
CN(C)c1ccc(/C=C/c2ccnc3c(O)cccc23)cc1 | < 4.74 | 5.98 | 
COC(=O)[C@@H](CO)NC(=O)OC(C)(C)C | < 3.70 | < 3.70 | 
CC(=O)OC(OC(C)=O)c1ccc2ccc3cccc4ccc1c2c34 | < 3.70 | 4.46 | 
C/C=C(\C)c1cc(O)c(C)c2c1Oc1cc(O)c(Cl)c(C)c1C(=O)O2 |  |  | inactive
CN(C)CC[N+]1=Nc2cccc3cccc(c23)N1 |  |  | inactive
O=C1Nc2ccccc2/C1=N\[O-].O=C1Nc2ccccc2/C1=N\[O-].[Cu+2] | < 3.70 | < 3.70 | 
CCOC(=O)CCC(NC(=O)OCc1ccccc1)C(=O)NNC(=O)OC(C)(C)C (centres undefined) | < 3.70 | < 3.70 | 
COC(=O)N/N=C(/CCCC(=O)Nc1cccc([N+](=O)[O-])c1)C(C#N)c1ccc(CC#N)cc1 (centres undefined) |  |  | inactive
Cn1/c(=N\N=C2\C=C3CCCCC3(C)CC2)sc2ccccc21 (centres undefined) | < 3.70 | 3.81 | 

SMILES | pEC50 | pIC50 | outcome
CCOC(=O)C1=C(c2ccccc2)NC(c2ccccc2)=C(C(=O)OCC)c2c1c(=O)cc[nH]c2=O | < 4.27 | < 4.27 | 
CCCCOCc1cc(CN2CCN(C)CC2)c(O)c2ncccc12 | < 3.84 | 5.06 | 
O=C1NC2Cc3ccccc3C(C2)O1 (centres undefined) | < 3.70 | < 3.70 | 
S=C(NN1CCOCC1)SSC(=S)NN1CCOCC1 | < 4.70 | 6.03 | 
Cc1csc2c1-n1cccc1C2=O | < 3.70 | 3.89 | 
COc1ccc(CC(CC(=O)O)NC(C)=O)cc1 (centres undefined) | < 3.00 | < 3.00 | 
CCOc1ccc(/C=C2/C(=O)N(/C=C3/C(=O)Oc4ccccc4C3=O)C(=NC(C)=O)N2C)cc1 | < 3.70 | < 3.70 | 
CCOC(=O)c1[nH]c(Br)c(-c2ccc(OC)c(OC)c2)c1Br | < 3.70 | 7.20 | 
N=c1c2c(ncn1N)Oc1c(c(-c3ccccc3)nn1-c1ccccc1)C2c1ccc(Cl)cc1 (centres undefined) | < 3.70 | 5.68 | 
S=c1[nH]nc(-c2ccccc2Cl)o1 | < 3.70 | 3.71 | 
Cc1ccc2c(c1)C(C1Cc3cccc(C)c3C1=O)OC2=O (centres undefined) | < 3.70 | < 3.70 | 
CN1CCN(C(=S)N2CCN(C)CC2)CC1 | < 5.70 | 5.72 | 
Nc1ccc[nH]c1=O | < 3.63 | < 3.63 | 
O=C(CSc1nnc(-c2ccc(N=Cc3ccc(Cl)cc3)cc2)o1)Nc1ccccc1Cl | < 3.57 | < 3.57 | 
c1ccc(-c2nc3sc(-c4ccccc4)nc3s2)cc1 | < 3.70 | < 3.70 | 
CS(C)=O | < 3.70 | < 3.70 | 
CN1CC=C(OP(=O)(NCc2ccccc2)N(CCCl)CCCl)CC1 (centres undefined) | < 3.70 | 3.87 | 
CCCCCCCCCCCCCCCCCCC(C(=O)O)C(=O)O | < 3.15 | 3.46 | 
CCOC(=O)C1(C#N)C(=O)c2cc[n+](CC[n+]3ccc4c(c3)C(=O)C(C#N)(C(=O)OCC)C4=O)cc2C1=O (centres undefined) | < 3.70 | 3.97 | 
Cc1ccc(S(=O)(=O)C2=c3nc4ccccc4cc3=C3C(=O)c4ccccc4C(=O)C32)cc1 (centres undefined) | < 4.66 | < 4.66 | 
COc1cc2c(c(OC)c1OC)CCC1(C)C(=O)NN=C21 (centres undefined) | < 3.06 | 3.56 | 
COc1ccc(CNc2cc(=O)n(C)c(=O)[nH]2)cc1 | < 3.70 | < 3.70 | 

SMILES | pEC50 | pIC50 | outcome
S=C(N/N=C\C=N/NC(=S)N1CCCCCC1)N1CCCCCC1 | < 4.00 | 4.85 | 
Cc1cc(C)c(C2=NO[C@H]3c4ccccc4OC[C@@H]23)c(C)c1 | < 4.61 | < 4.61 | 
CC#CC(OCC)(OCC)OCC | < 2.87 | < 2.87 | 
Cc1ccc(C)c(NC(=O)C(=O)C(C2C(C)CC(=O)C2CC(=O)O)[N+](=O)[O-])c1 (centres undefined) | < 3.19 | < 3.19 | 
CNc1ccc(/C=C2\C=Cc3ccccc32)cc1Br | < 4.92 | < 4.92 | 
Cc1nc(C)c(N2CCN(S(=O)(=O)N(Cc3ccccc3)Cc3ccccc3)CC2)c(=O)[nH]1 | < 3.70 | < 3.70 | 
O=NC1(c2ccccc2)CCCCC1[N+](=O)[O-] (centres undefined) | < 3.70 | < 3.70 | 
Nc1cc(C(=O)NC2C3CC4CC(C3)CC2C4)[nH]c(=S)n1 (centres undefined) | < 3.09 | < 3.09 | 
N#C/C(=C\c1ccc(O)c(O)c1)C(=O)N[C@@H]1CCC[C@@H](NC(=O)/C(C#N)=C/c2ccc(O)c(O)c2)C1 | < 3.70 | 4.91 | 
O=C1OCC(Cc2ccc3c(c2)OCO3)[C@H]1Cc1ccccc1 (some centres undefined) | < 3.70 | 3.73 | 
CCCCCC/C=C\CCCCCCCCC(=O)c1cccc(OC)c1OC | < 3.70 | < 3.70 | 
OCCN=C1c2ccccc2C2C(c3ccccc31)C1c3ccccc3C(=NCCO)c3ccccc3C21 (centres undefined) | < 3.70 | 4.62 | 
CC(C)C(NC(=O)C(Cc1ccccc1)NC(=O)[C@H]1CCC[C@H]1NC(=O)C(N)Cc1ccc(O)cc1)C(N)=O (some centres undefined) |  |  | inactive
COc1cc(N=Nc2ccccc2)cc(/C=N/NC(=O)c2cccnc2)c1O | < 3.18 | 4.22 | 
C=CC[C@H](C[C@H](C[C@H](C[C@H](C[C@H](C[C@H](C[C@H](C[C@H](C[C@H](C[C@H](CCCCC)OC)OC)OC)OC)OC)OC)OC)OC)OC)OC | < 3.70 | 3.94 | 
Nc1ccccc1C(=O)CCC1C(=O)NC(=S)NC1=O | < 5.16 | < 5.16 | 
O=C(NCCc1ccccc1)/C(=C\c1ccc(Cl)cc1Cl)NC(=O)c1ccccc1 | < 3.70 | < 3.70 | 
CN(C)CCNc1ccc2ncnc3c2c1C(=O)c1ccccc1-3 | < 6.00 | 6.66 | 
Cc1ccc(C2=Nc3ccccc3SC(c3cccc([N+](=O)[O-])c3)C2)cc1 (centres undefined) | < 4.47 | 5.21 | 
O=[N+]([O-])c1ccc(CSC2=C(c3ccc(Cl)cc3)S/C(=C3\SC(SCc4ccc([N+](=O)[O-])cc4)=C(c4ccc(Cl)cc4)S3)S2)cc1 | < 3.70 | < 3.70 | 
COC(=O)c1cc(CN(C)C)c(O)c(CN(C)C)c1 | < 3.70 | < 3.70 | 
